# Legend:
# Type in all cases: cell-based
# [1] = system: S. aureus ATCC 33591 (methicillin-resistant); test: broth microdilution MIC assay, S. aureus 33591; details: Staphylococcus aureus, ATCC33591; S. aureus 33591, methicillin-resistant; read-out: MIC, S. aureus 33591
# Description: (§1) To determine the ability of test compounds to inhibit the growth of bacterial strains, classic cell-based broth microdilution MIC assays were employed. MIC assays are performed according to CLSI methods except where otherwise noted (CLSI, 2011 and CLSI, 2009). The reference strains S. aureus ATCC 29213 (methicillin sensitive), S. aureus ATCC 33591 (methicillin-resistant), E. coli ATCC 25922 (wild-type/QC strain), P. aeruginosa ATCC 27853 (wild-type/QC strain), and the clinical isolate P. aeruginosa PA 8 were used to determine the ability of the exemplary carbapenem compounds to inhibit bacterial growth. An expanded panel of methicillin resistance S. aureus (MRSA) and Pseudomonas was also used to determine the ability of exemplary carbapenem compounds to inhibit bacterial growth across a broader representation of those species. To determine activity in MRSA and in addition to S. aureus ATCC 33591, S. aureus USA 300 and USA 600, some of the most common clones found to cause human infection, were also used. To further gauge the impact on the carbapenem compounds due to various resistance mechanisms in Pseudomonas, the following strains were included: P. aeruginosa 35151 (hyper-permeable strain), P. aeruginosa ΔmexAB-OprM (an efflux pump knockout), and P. aeruginosa Paβ-173 (a clinical isolate of reduced carbapenem susceptibility). Briefly, cryo-preserved bacterial cultures of clinical strains are streaked for isolation on appropriate agar medium, in this case Mueller Hinton II agar. Following incubation to allow formation of colonies, these plates are sealed with parafilm and stored refrigerated for up to two weeks. For preparation of assay inocula and to ensure low variability, at least 5 colonies are picked from the agar plates with an inoculating loop and aseptically transferred to a culture tube containing 3 mL of Mueller-Hinton Broth (supplemented with divalent cations to required levels based on Manufacturers' specification). The broth culture is grown for 3-5 hours at 37° C. with shaking at 200 rpm. Meanwhile, 2-fold serial dilutions of test compounds are conducted in a 96 well plate with a final volume of 75 μL per well at 2-fold the final desired concentration. After the dilution plates are set up the growing cultures are then diluted in a cuvette containing MH II broth and the optical density is measured at 600 nm. Inocula are diluted such that 75 μL of this culture in Mueller-Hinton Broth results in a starting bacterial concentration of 5×10^5 CFU/mL when added to the dilution plates. The plates are incubated 16-20 hours at 37° C. The MIC is read visually as the lowest concentration well with no bacterial growth.
# S. aureus USA 300 = test: broth microdilution MIC assay, S. aureus USA300; details: Staphylococcus aureus; S. aureus USA300 (MRSA); read-out: MIC, S. aureus USA300
# Description: as §1
# S. aureus USA 600 = test: broth microdilution MIC assay, S. aureus USA600; details: Staphylococcus aureus; S. aureus USA600 (MRSA); read-out: MIC, S. aureus USA600
# Description: as §1
# [2] = system: E. coli ATCC 25922 (wild-type/QC strain); test: broth microdilution MIC assay, E. coli 25922; details: Escherichia coli, ATCC25922; read-out: MIC, E. coli 25922
# Description: as §1
# [3] = system: P. aeruginosa ATCC 27853 (wild-type/QC strain); test: broth microdilution MIC assay, P. aeruginosa 27853; details: Pseudomonas aeruginosa, ATCC27853; read-out: MIC, P. aeruginosa 27853
# Description: as §1
# [4] = system: P. aeruginosa 35151 (hyper-permeable strain); test: broth microdilution MIC assay, P. aeruginosa 35151; details: Pseudomonas aeruginosa, read-out: MIC, P. aeruginosa 35151
# Description: as §1
# [5] = system: P. aeruginosa ΔmexAB-OprM (an efflux pump knockout); test: broth microdilution MIC assay, P. aeruginosa ΔmexAB-OprM; details: Pseudomonas aeruginosa, read-out: MIC, P. aeruginosa ΔmexAB-OprM
# Description: as §1
# P. aeruginosa Paeβ-17 = test: broth microdilution MIC assay, P. aeruginosa Paeβ-17; details: Pseudomonas aeruginosa, read-out: MIC, P. aeruginosa Paeβ-17
# Description: as §1
SMILES,MIC [1],MIC (S. aureus USA 300),MIC (S. aureus USA 600),MIC [2],MIC [3],MIC [4],MIC [5],MIC (P. aeruginosa Paeβ-17)
"C[C@@H](O)[C@H]1C(=O)N2C(C(=O)O)=C(SC3CN([C@H]4C[C@@H](CN)C4)C3)[C@H](C)[C@H]12 [Example 1, (4R,5S,6S)-3-((1-((1s,3S)-3-(aminomethyl)cyclobutyl)azetidin-3-yl)thio)-6-((R)-1-hydroxyethyl)-4-methyl-7-oxo-1-azabicyclo[3.2.0]hept-2-ene-2-carboxylic acid]",8 to 32 µg/mL,1 to 4 µg/mL,1 to 4 µg/mL,< 1 µg/mL,8 to 32 µg/mL,< 1 µg/mL,1 to 4 µg/mL,> 32 µg/mL
"C[C@@H](O)[C@H]1C(=O)N2C(C(=O)O)=C(SC3CN([C@H]4C[C@H](CN)C4)C3)[C@H](C)[C@H]12 [Example 2, (4R,5S,6S)-3-((1-((1r,3R)-3-(aminomethyl)cyclobutyl)azetidin-3-yl)thio)-6-((R)-1-hydroxyethyl)-4-methyl-7-oxo-1-azabicyclo[3.2.0]hept-2-ene-2-carboxylic acid]",8 to 32 µg/mL,1 to 4 µg/mL,1 to 4 µg/mL,< 1 µg/mL,8 to 32 µg/mL,< 1 µg/mL,1 to 4 µg/mL,> 32 µg/mL
"C[C@@H](O)[C@H]1C(=O)N2C(C(=O)O)=C(SC3CN([C@H]4C[C@@H](N)C4)C3)[C@H](C)[C@H]12 [Example 3, (4R,5S,6S)-3-((1-((1s,3S)-3-aminocyclobutyl)azetidin-3-yl)thio)-6-((R)-1-hydroxyethyl)-4-methyl-7-oxo-1-azabicyclo[3.2.0]hept-2-ene-2-carboxylic acid]",8 to 32 µg/mL,1 to 4 µg/mL,1 to 4 µg/mL,< 1 µg/mL,8 to 32 µg/mL,< 1 µg/mL,1 to 4 µg/mL,> 32 µg/mL
"C[C@@H](O)[C@H]1C(=O)N2C(C(=O)O)=C(SC3CN([C@H]4C[C@H](N)C4)C3)[C@H](C)[C@H]12 [Example 4, (4R,5S,6S)-3-((1-((1r,3R)-3-aminocyclobutyl)azetidin-3-yl)thio)-6-((R)-1-hydroxyethyl)-4-methyl-7-oxo-1-azabicyclo[3.2.0]hept-2-ene-2-carboxylic acid]",8 to 32 µg/mL,1 to 4 µg/mL,1 to 4 µg/mL,< 1 µg/mL,8 to 32 µg/mL,< 1 µg/mL,1 to 4 µg/mL,> 32 µg/mL
"C[C@@H](O)[C@H]1C(=O)N2C(C(=O)O)=C(SC3CN([C@H]4CC[C@H](N)C4)C3)[C@H](C)[C@H]12 [Example 5, (4R,5S,6S)-3-((1-((1S,3S)-3-aminocyclopentyl)azetidin-3-yl)thio)-6-((R)-1-hydroxyethyl)-4-methyl-7-oxo-1-azabicyclo[3.2.0]hept-2-ene-2-carboxylic acid]",1 to 4 µg/mL,1 to 4 µg/mL,1 to 4 µg/mL,< 1 µg/mL,1 to 4 µg/mL,< 1 µg/mL,1 to 4 µg/mL,8 to 32 µg/mL
"C[C@@H](O)[C@H]1C(=O)N2C(C(=O)O)=C(SC3CN([C@@H]4CC[C@H](N)C4)C3)[C@H](C)[C@H]12 [Example 6, (4R,5S,6S)-3-((1-((1R,3S)-3-aminocyclopentyl)azetidin-3-yl)thio)-6-((R)-1-hydroxyethyl)-4-methyl-7-oxo-1-azabicyclo[3.2.0]hept-2-ene-2-carboxylic acid]",1 to 4 µg/mL,1 to 4 µg/mL,1 to 4 µg/mL,< 1 µg/mL,1 to 4 µg/mL,< 1 µg/mL,1 to 4 µg/mL,8 to 32 µg/mL
"C[C@@H](O)[C@H]1C(=O)N2C(C(=O)O)=C(SC3CN([C@H]4CC[C@@H](N)C4)C3)[C@H](C)[C@H]12 [Example 7, (4R,5S,6S)-3-((1-((1S,3R)-3-aminocyclopentyl)azetidin-3-yl)thio)-6-((R)-1-hydroxyethyl)-4-methyl-7-oxo-1-azabicyclo[3.2.0]hept-2-ene-2-carboxylic acid]",8 to 32 µg/mL,1 to 4 µg/mL,1 to 4 µg/mL,< 1 µg/mL,8 to 32 µg/mL,< 1 µg/mL,1 to 4 µg/mL,8 to 32 µg/mL
"C[C@@H](O)[C@H]1C(=O)N2C(C(=O)O)=C(SC3CN([C@@H]4CC[C@@H](N)C4)C3)[C@H](C)[C@H]12 [Example 8, (4R,5S,6S)-3-((1-((1R,3R)-3-aminocyclopentyl)azetidin-3-yl)thio)-6-((R)-1-hydroxyethyl)-4-methyl-7-oxo-1-azabicyclo[3.2.0]hept-2-ene-2-carboxylic acid]",1 to 4 µg/mL,1 to 4 µg/mL,1 to 4 µg/mL,< 1 µg/mL,1 to 4 µg/mL,< 1 µg/mL,1 to 4 µg/mL,8 to 32 µg/mL
"C[C@@H](O)[C@H]1C(=O)N2C(C(=O)O)=C(SC3CN([C@H]4CC[C@@H](NC(=N)N)C4)C3)[C@H](C)[C@H]12 [Example 9, (4R,5S,6S)-3-((1-((1S,3R)-3-guanidinocyclopentyl)azetidin-3-yl)thio)-6-((R)-1-hydroxyethyl)-4-methyl-7-oxo-1-azabicyclo[3.2.0]hept-2-ene-2-carboxylic acid]",1 to 4 µg/mL,< 1 µg/mL,< 1 µg/mL,< 1 µg/mL,1 to 4 µg/mL,< 1 µg/mL,< 1 µg/mL,8 to 32 µg/mL
"C[C@@H](O)[C@H]1C(=O)N2C(C(=O)O)=C(SC3CN([C@@H]4CC[C@@H](NC(=N)N)C4)C3)[C@H](C)[C@H]12 [Example 10, (4R,5S,6S)-3-((1-((1R,3R)-3-guanidinocyclopentyl)azetidin-3-yl)thio)-6-((R)-1-hydroxyethyl)-4-methyl-7-oxo-1-azabicyclo[3.2.0]hept-2-ene-2-carboxylic acid]",1 to 4 µg/mL,1 to 4 µg/mL,1 to 4 µg/mL,< 1 µg/mL,8 to 32 µg/mL,< 1 µg/mL,1 to 4 µg/mL,8 to 32 µg/mL
"C[C@@H](O)[C@H]1C(=O)N2C(C(=O)O)=C(SC3CN([C@H]4CC[C@H](NC(=N)N)C4)C3)[C@H](C)[C@H]12 [Example 11, (4R,5S,6S)-3-((1-((1S,3S)-3-guanidinocyclopentyl)azetidin-3-yl)thio)-6-((R)-1-hydroxyethyl)-4-methyl-7-oxo-1-azabicyclo[3.2.0]hept-2-ene-2-carboxylic acid]",1 to 4 µg/mL,1 to 4 µg/mL,< 1 µg/mL,< 1 µg/mL,1 to 4 µg/mL,< 1 µg/mL,1 to 4 µg/mL,8 to 32 µg/mL
"C[C@@H](O)[C@H]1C(=O)N2C(C(=O)O)=C(SC3CN([C@@H]4CC[C@H](NC(=N)N)C4)C3)[C@H](C)[C@H]12 [Example 12, (4R,5S,6S)-3-((1-((1R,3S)-3-guanidinocyclopentyl)azetidin-3-yl)thio)-6-((R)-1-hydroxyethyl)-4-methyl-7-oxo-1-azabicyclo[3.2.0]hept-2-ene-2-carboxylic acid]",1 to 4 µg/mL,1 to 4 µg/mL,1 to 4 µg/mL,< 1 µg/mL,1 to 4 µg/mL,< 1 µg/mL,1 to 4 µg/mL,8 to 32 µg/mL
"C[C@@H](O)[C@H]1C(=O)N2C(C(=O)O)=C(SC3CN([C@H]4CCC[C@H](N)C4)C3)[C@H](C)[C@H]12 [Example 13, (4R,5S,6S)-3-((1-((1S,3S)-3-aminocyclohexyl)azetidin-3-yl)thio)-6-((R)-1-hydroxyethyl)-4-methyl-7-oxo-1-azabicyclo[3.2.0]hept-2-ene-2-carboxylic acid]",8 to 32 µg/mL,1 to 4 µg/mL,1 to 4 µg/mL,< 1 µg/mL,8 to 32 µg/mL,< 1 µg/mL,1 to 4 µg/mL,8 to 32 µg/mL

# Reference: patent US20230127944A1, “BROAD-SPECTRUM CARBAPENEMS” (priority 2019, published 2023)
